# Test results from PubChem BioAssay (NCI).
#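 Results reflect a 48-hour exposure of cells in 96-well plates to compound at five concentrations. Here, GI50 denotes the concentration required for 50% inhibition of growth. TGI denotes the concentration required for complete inhibition of growth.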
# What was measured:
# Test in all cases: NCI tumour cell line growth inhibition, 48 h
# 786-0 renal = tested on: 786-0 renal
# A498 renal = tested on: A498 renal
# A549 NSCLC = tested on: A549 NSCLC
# ACHN renal = tested on: ACHN renal
# BT-549 breast = tested on: BT-549 breast
# CAKI-1 renal = tested on: CAKI-1 renal
# CCRF-CEM leukemia = tested on: CCRF-CEM leukemia
# COLO 205 colon = tested on: COLO 205 colon
# DU-145 prostate = tested on: DU-145 prostate
# HCC-2998 colon = tested on: HCC-2998 colon
# HCT-116 colon = tested on: HCT-116 colon
# HCT-15 colon = tested on: HCT-15 colon
# HL-60(TB) leukemia = tested on: HL-60(TB) leukemia
# HOP-62 NSCLC = tested on: HOP-62 NSCLC
# HOP-92 NSCLC = tested on: HOP-92 NSCLC
# HS 578T breast = tested on: HS 578T breast
# HT29 colon = tested on: HT29 colon
# IGROV1 ovarian = tested on: IGROV1 ovarian
# K-562 leukemia = tested on: K-562 leukemia
# KM12 colon = tested on: KM12 colon
# LOX IMVI melanoma = tested on: LOX IMVI melanoma
# M14 melanoma = tested on: M14 melanoma
# MALME-3M melanoma = tested on: MALME-3M melanoma
# MCF7 breast = tested on: MCF7 breast
# MDA-MB-231 breast = tested on: MDA-MB-231 breast
# MDA-MB-435 = tested on: MDA-MB-435
# MOLT-4 leukemia = tested on: MOLT-4 leukemia
# NCI-H226 lung = tested on: NCI-H226 lung
# NCI-H23 lung = tested on: NCI-H23 lung
# NCI-H460 lung = tested on: NCI-H460 lung
# NCI-H522 lung = tested on: NCI-H522 lung
# NCI/ADR-RES ovarian = tested on: NCI/ADR-RES ovarian
# OVCAR-3 ovarian = tested on: OVCAR-3 ovarian
# OVCAR-4 ovarian = tested on: OVCAR-4 ovarian
# OVCAR-5 ovarian = tested on: OVCAR-5 ovarian
# OVCAR-8 ovarian = tested on: OVCAR-8 ovarian
# PC-3 prostate = tested on: PC-3 prostate
# RPMI-8226 leukemia = tested on: RPMI-8226 leukemia
# RXF 393 renal = tested on: RXF 393 renal
# SF-268 CNS = tested on: SF-268 CNS
# SF-295 CNS = tested on: SF-295 CNS
# SF-539 CNS = tested on: SF-539 CNS
# SK-MEL-2 melanoma = tested on: SK-MEL-2 melanoma
# SK-MEL-28 melanoma = tested on: SK-MEL-28 melanoma
# SK-MEL-5 melanoma = tested on: SK-MEL-5 melanoma
# SK-OV-3 ovarian = tested on: SK-OV-3 ovarian
# SN12C renal = tested on: SN12C renal
# SNB-19 CNS = tested on: SNB-19 CNS
# SNB-75 CNS = tested on: SNB-75 CNS
# SR leukemia = tested on: SR leukemia
# SW-620 colon = tested on: SW-620 colon
# T-47D breast = tested on: T-47D breast
# TK-10 renal = tested on: TK-10 renal
# U251 CNS = tested on: U251 CNS
# UACC-257 melanoma = tested on: UACC-257 melanoma
# UACC-62 melanoma = tested on: UACC-62 melanoma
# UO-31 renal = tested on: UO-31 renal
smiles,measurement,setting,value
OCc1ccc(-c2ccc(-c3ccc(CO)o3)[se]2)o1,GI50,786-0 renal,> 100 µM
same,TGI,786-0 renal,> 100 µM
same,GI50,A498 renal,170 nM
same,TGI,A498 renal,375 nM
same,GI50,A549 NSCLC,> 59.8 µM
same,TGI,A549 NSCLC,> 100 µM
same,GI50,ACHN renal,> 100 µM
same,TGI,ACHN renal,> 100 µM
same,GI50,BT-549 breast,46.4 µM
same,TGI,BT-549 breast,> 100 µM
same,GI50,CAKI-1 renal,> 100 µM
same,TGI,CAKI-1 renal,> 100 µM
same,GI50,CCRF-CEM leukemia,35.5 µM
same,TGI,CCRF-CEM leukemia,> 100 µM
same,GI50,COLO 205 colon,60.2 µM
same,TGI,COLO 205 colon,> 100 µM
same,GI50,DU-145 prostate,> 94 µM
same,TGI,DU-145 prostate,> 100 µM
same,GI50,HCC-2998 colon,> 100 µM
same,TGI,HCC-2998 colon,> 100 µM
same,GI50,HCT-116 colon,69.4 µM
same,TGI,HCT-116 colon,> 100 µM
same,GI50,HCT-15 colon,> 100 µM
same,TGI,HCT-15 colon,> 100 µM
same,GI50,HL-60(TB) leukemia,39.7 µM
same,TGI,HL-60(TB) leukemia,> 100 µM
same,GI50,HOP-62 NSCLC,> 80.4 µM
same,TGI,HOP-62 NSCLC,> 100 µM
same,GI50,HOP-92 NSCLC,48.2 µM
same,TGI,HOP-92 NSCLC,> 100 µM
same,GI50,HS 578T breast,> 79 µM
same,TGI,HS 578T breast,> 100 µM
same,GI50,HT29 colon,> 95 µM
same,TGI,HT29 colon,> 100 µM
same,GI50,IGROV1 ovarian,9.28 µM
same,TGI,IGROV1 ovarian,> 100 µM
same,GI50,K-562 leukemia,38.1 µM
same,TGI,K-562 leukemia,> 100 µM
same,GI50,KM12 colon,> 74.3 µM
same,TGI,KM12 colon,> 100 µM
same,GI50,LOX IMVI melanoma,> 91.9 µM
same,TGI,LOX IMVI melanoma,> 100 µM
same,GI50,M14 melanoma,57.8 µM
same,TGI,M14 melanoma,> 100 µM
same,GI50,MALME-3M melanoma,> 100 µM
same,TGI,MALME-3M melanoma,> 100 µM
same,GI50,MCF7 breast,5.53 µM
same,TGI,MCF7 breast,> 100 µM
same,GI50,MDA-MB-231 breast,> 83.7 µM
same,TGI,MDA-MB-231 breast,> 100 µM
same,GI50,MDA-MB-435,42.5 µM
same,TGI,MDA-MB-435,> 100 µM
same,GI50,MOLT-4 leukemia,41.2 µM
same,TGI,MOLT-4 leukemia,> 100 µM
same,GI50,NCI-H226 lung,300 nM
same,TGI,NCI-H226 lung,1550 nM
same,GI50,NCI-H23 lung,> 100 µM
same,TGI,NCI-H23 lung,> 100 µM
same,GI50,NCI-H460 lung,> 72.7 µM
same,TGI,NCI-H460 lung,> 100 µM
same,GI50,NCI-H522 lung,53.4 µM
same,TGI,NCI-H522 lung,> 100 µM
same,GI50,NCI/ADR-RES ovarian,> 60.9 µM
same,TGI,NCI/ADR-RES ovarian,> 100 µM
same,GI50,OVCAR-3 ovarian,31.3 µM
same,TGI,OVCAR-3 ovarian,> 100 µM
same,GI50,OVCAR-4 ovarian,35.4 µM
same,TGI,OVCAR-4 ovarian,> 100 µM
same,GI50,OVCAR-5 ovarian,629 nM
same,TGI,OVCAR-5 ovarian,> 100 µM
same,GI50,OVCAR-8 ovarian,55.8 µM
same,TGI,OVCAR-8 ovarian,> 100 µM
same,GI50,PC-3 prostate,69.1 µM
same,TGI,PC-3 prostate,> 100 µM
same,GI50,RPMI-8226 leukemia,33.7 µM
same,TGI,RPMI-8226 leukemia,> 100 µM
same,GI50,RXF 393 renal,> 100 µM
same,TGI,RXF 393 renal,> 100 µM
same,GI50,SF-268 CNS,> 100 µM
same,TGI,SF-268 CNS,> 100 µM
same,GI50,SF-295 CNS,> 40.8 µM
same,TGI,SF-295 CNS,> 100 µM
same,GI50,SF-539 CNS,> 100 µM
same,TGI,SF-539 CNS,> 100 µM
same,GI50,SK-MEL-2 melanoma,> 84.5 µM
same,TGI,SK-MEL-2 melanoma,> 100 µM
same,GI50,SK-MEL-28 melanoma,> 100 µM
same,TGI,SK-MEL-28 melanoma,> 100 µM
same,GI50,SK-MEL-5 melanoma,34.8 µM
same,TGI,SK-MEL-5 melanoma,> 100 µM
same,GI50,SK-OV-3 ovarian,> 100 µM
same,TGI,SK-OV-3 ovarian,> 100 µM
same,GI50,SN12C renal,> 100 µM
same,TGI,SN12C renal,> 100 µM
same,GI50,SNB-19 CNS,> 100 µM
same,TGI,SNB-19 CNS,> 100 µM
same,GI50,SNB-75 CNS,37 µM
same,TGI,SNB-75 CNS,> 100 µM
same,GI50,SR leukemia,> 69.2 µM
same,TGI,SR leukemia,> 100 µM
same,GI50,SW-620 colon,> 100 µM
same,TGI,SW-620 colon,> 100 µM
same,GI50,T-47D breast,15.7 µM
same,TGI,T-47D breast,> 100 µM
same,GI50,TK-10 renal,> 100 µM
same,TGI,TK-10 renal,> 100 µM
same,GI50,U251 CNS,> 76.4 µM
same,TGI,U251 CNS,> 100 µM
same,GI50,UACC-257 melanoma,1490 nM
same,TGI,UACC-257 melanoma,> 20.8 µM
same,GI50,UACC-62 melanoma,8.72 µM
same,TGI,UACC-62 melanoma,> 100 µM
same,GI50,UO-31 renal,> 95.3 µM
same,TGI,UO-31 renal,> 100 µM
